Measured values published in ChEMBL document CHEMBL4041516, “SAR study of 5-alkynyl substituted quinazolin-4(3H)-ones as phosphoinositide 3-kinase delta (PI3Kδ) inhibitors” (Eur J Med Chem, 2017).

How the values were obtained:
[1] = molecular target: T1, Phosphatidylinositol 4,5-bisphosphate 3-kinase catalytic subunit delta isoform (Homo sapiens, UniProt O00329); test: Inhibition of PI3Kdelta (unknown origin) using PIP2 as substrate measured after 30 mins by HTRF assay
T1 sequence (O00329 whole entry): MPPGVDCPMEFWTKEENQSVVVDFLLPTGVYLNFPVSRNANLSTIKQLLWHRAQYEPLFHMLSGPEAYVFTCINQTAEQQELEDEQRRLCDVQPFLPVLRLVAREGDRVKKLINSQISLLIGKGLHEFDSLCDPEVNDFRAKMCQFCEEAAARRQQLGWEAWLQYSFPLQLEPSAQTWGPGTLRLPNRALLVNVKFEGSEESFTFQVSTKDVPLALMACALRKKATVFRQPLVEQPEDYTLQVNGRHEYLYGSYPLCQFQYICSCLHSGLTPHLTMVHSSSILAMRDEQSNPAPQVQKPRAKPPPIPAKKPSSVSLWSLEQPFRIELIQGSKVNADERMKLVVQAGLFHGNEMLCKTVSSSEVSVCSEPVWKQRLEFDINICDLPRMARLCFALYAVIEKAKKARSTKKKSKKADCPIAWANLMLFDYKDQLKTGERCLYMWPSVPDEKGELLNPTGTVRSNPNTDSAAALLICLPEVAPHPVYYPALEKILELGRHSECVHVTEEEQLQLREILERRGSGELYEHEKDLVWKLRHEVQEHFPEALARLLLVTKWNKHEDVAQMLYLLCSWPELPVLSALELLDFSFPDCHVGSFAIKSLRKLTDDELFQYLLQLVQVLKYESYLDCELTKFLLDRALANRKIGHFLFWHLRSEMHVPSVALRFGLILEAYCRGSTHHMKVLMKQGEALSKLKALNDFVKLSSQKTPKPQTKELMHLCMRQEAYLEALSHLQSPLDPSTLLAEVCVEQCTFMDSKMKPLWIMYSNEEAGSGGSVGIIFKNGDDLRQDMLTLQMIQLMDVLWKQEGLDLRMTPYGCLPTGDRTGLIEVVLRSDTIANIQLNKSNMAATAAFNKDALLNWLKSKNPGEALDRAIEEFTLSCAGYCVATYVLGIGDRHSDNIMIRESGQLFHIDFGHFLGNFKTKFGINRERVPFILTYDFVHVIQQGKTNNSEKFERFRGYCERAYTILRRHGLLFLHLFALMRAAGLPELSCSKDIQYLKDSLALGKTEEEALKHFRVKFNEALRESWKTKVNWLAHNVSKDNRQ

SU-DHL-6 = test: Antiproliferative activity against human SUDHL6 cells measured after 72 hrs by alamar blue assay; assay type: functional, cell-based; conditions: SU-DHL-6, 72 h
[2] = molecular target: Phosphatidylinositol 4,5-bisphosphate 3-kinase catalytic subunit gamma isoform (Homo sapiens, UniProt P48736); test: Inhibition of PI3Kgamma (unknown origin) using PIP2 as substrate measured after 30 mins by HTRF assay
[3] = molecular target: Phosphatidylinositol 4,5-bisphosphate 3-kinase catalytic subunit alpha isoform (Homo sapiens, UniProt P42336); test: Inhibition of PI3Kalpha (unknown origin) using PIP2 as substrate measured after 30 mins by HTRF assay
[4] = molecular target: Phosphatidylinositol 4,5-bisphosphate 3-kinase catalytic subunit beta isoform (Homo sapiens, UniProt P42338); test: Inhibition of PI3Kbeta (unknown origin) using PIP2 as substrate measured after 30 mins by HTRF assay
KARPAS-422 = test: Antiproliferative activity against human KARPAS422 cells measured after 72 hrs by alamar blue assay; assay type: functional, cell-based; conditions: KARPAS-422, 72 h
[5] = Antiproliferative activity against human WSU-DLCL2 cells measured after 72 hrs by alamar blue assay; assay type: functional, cell-based; conditions: WSUDLCL2, 72 h
HT = test: Antiproliferative activity against human HT cells measured after 72 hrs by alamar blue assay; assay type: functional, cell-based
Pfeiffer = test: Antiproliferative activity against human Pfeiffer cells measured after 72 hrs by alamar blue assay; assay type: functional, cell-based
NAMALVA = test: Antiproliferative activity against human NAMALWA cells measured after 72 hrs by alamar blue assay; assay type: functional, cell-based
SU-DHL-1 = test: Antiproliferative activity against human SU-DHL1 cells measured after 72 hrs by alamar blue assay; assay type: functional, cell-based; conditions: SU-DHL-1, 72 h
SUD4 = test: Antiproliferative activity against human SU-DHL4 cells measured after 72 hrs by alamar blue assay; assay type: functional, cell-based; conditions: SU-DHL-4, 72 h
SU-DHL10 = test: Antiproliferative activity against human SU-DHL10 cells measured after 72 hrs by alamar blue assay; assay type: functional, cell-based; conditions: SU-DHL10, 72 h
MOLT-4 = test: Antiproliferative activity against human MOLT4 cells measured after 72 hrs by alamar blue assay; assay type: functional, cell-based; conditions: MOLT-4, 72 h
[6] = molecular target: T2, Voltage-gated inwardly rectifying potassium channel KCNH2 (Homo sapiens, UniProt Q12809); test: Inhibition of human ERG
hERG (KCNH2) = hERG (KCNH2) (Homo sapiens, UniProt Q12809); test: (§1) Inhibition of human ERG at 40 uM relative to control
[7] = molecular target: T2, Voltage-gated inwardly rectifying potassium channel KCNH2; test: as §1; conditions: 40 µM

T2 sequence (Q12809 whole entry): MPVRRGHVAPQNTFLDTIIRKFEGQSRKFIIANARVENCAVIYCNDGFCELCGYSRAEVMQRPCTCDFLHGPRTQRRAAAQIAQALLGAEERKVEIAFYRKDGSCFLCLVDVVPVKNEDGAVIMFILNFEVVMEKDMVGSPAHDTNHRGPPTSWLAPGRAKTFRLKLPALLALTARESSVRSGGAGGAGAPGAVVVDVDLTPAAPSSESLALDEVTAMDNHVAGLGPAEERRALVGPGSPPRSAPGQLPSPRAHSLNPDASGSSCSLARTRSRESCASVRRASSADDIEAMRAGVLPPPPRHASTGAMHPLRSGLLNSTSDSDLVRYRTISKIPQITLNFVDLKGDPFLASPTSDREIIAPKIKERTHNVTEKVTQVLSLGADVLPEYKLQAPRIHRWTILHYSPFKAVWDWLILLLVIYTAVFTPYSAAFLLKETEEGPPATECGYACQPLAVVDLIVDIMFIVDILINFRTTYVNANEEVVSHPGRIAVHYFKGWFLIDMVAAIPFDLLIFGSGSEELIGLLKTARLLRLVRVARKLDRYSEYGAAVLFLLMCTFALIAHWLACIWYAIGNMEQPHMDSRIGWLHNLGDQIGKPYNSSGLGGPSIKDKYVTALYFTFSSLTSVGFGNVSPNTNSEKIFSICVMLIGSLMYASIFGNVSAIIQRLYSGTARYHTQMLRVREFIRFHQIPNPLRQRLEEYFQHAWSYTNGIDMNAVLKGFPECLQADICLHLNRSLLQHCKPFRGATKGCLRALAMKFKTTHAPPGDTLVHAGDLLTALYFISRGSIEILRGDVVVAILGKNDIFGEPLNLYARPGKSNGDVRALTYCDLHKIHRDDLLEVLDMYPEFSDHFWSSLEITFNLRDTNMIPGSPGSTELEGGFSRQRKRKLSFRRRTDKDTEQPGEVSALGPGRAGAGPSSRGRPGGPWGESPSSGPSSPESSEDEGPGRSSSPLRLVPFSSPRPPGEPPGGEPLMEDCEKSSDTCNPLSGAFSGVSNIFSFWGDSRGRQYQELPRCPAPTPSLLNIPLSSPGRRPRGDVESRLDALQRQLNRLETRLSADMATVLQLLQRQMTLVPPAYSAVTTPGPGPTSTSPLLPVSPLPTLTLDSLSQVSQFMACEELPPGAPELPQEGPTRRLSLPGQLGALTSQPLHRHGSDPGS
Sequence of Phosphatidylinositol 4,5-bisphosphate 3-kinase catalytic subunit gamma isoform (P48736 whole entry, canonical isoform): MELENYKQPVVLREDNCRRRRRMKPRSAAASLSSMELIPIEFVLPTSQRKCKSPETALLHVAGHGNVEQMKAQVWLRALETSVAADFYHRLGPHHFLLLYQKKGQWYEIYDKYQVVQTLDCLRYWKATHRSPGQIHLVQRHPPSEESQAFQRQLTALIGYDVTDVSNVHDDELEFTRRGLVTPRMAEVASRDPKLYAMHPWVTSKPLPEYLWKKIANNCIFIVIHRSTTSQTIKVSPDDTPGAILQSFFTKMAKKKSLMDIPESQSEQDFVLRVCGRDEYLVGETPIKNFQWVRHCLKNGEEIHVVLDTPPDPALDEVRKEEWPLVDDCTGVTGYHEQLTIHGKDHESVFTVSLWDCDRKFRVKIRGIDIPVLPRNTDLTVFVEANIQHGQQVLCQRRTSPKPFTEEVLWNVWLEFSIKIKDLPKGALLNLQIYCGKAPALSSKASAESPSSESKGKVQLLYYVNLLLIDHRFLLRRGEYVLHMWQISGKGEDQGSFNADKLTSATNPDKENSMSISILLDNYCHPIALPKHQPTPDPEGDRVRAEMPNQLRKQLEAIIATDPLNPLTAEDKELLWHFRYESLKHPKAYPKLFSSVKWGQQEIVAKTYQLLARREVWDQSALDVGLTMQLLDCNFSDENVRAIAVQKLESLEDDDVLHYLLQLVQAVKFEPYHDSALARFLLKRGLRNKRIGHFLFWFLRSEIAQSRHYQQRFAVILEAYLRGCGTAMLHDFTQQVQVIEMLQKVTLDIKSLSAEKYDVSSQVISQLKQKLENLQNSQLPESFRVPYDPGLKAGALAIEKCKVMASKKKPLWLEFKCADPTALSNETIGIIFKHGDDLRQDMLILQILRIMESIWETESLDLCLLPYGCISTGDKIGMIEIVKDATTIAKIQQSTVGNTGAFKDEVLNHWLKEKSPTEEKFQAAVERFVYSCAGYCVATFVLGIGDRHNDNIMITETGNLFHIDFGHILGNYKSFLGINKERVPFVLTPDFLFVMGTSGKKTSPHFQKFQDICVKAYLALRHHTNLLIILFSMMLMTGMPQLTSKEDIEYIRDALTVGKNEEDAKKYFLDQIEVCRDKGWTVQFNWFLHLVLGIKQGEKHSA
Sequence of Phosphatidylinositol 4,5-bisphosphate 3-kinase catalytic subunit beta isoform (P42338 whole entry, canonical isoform): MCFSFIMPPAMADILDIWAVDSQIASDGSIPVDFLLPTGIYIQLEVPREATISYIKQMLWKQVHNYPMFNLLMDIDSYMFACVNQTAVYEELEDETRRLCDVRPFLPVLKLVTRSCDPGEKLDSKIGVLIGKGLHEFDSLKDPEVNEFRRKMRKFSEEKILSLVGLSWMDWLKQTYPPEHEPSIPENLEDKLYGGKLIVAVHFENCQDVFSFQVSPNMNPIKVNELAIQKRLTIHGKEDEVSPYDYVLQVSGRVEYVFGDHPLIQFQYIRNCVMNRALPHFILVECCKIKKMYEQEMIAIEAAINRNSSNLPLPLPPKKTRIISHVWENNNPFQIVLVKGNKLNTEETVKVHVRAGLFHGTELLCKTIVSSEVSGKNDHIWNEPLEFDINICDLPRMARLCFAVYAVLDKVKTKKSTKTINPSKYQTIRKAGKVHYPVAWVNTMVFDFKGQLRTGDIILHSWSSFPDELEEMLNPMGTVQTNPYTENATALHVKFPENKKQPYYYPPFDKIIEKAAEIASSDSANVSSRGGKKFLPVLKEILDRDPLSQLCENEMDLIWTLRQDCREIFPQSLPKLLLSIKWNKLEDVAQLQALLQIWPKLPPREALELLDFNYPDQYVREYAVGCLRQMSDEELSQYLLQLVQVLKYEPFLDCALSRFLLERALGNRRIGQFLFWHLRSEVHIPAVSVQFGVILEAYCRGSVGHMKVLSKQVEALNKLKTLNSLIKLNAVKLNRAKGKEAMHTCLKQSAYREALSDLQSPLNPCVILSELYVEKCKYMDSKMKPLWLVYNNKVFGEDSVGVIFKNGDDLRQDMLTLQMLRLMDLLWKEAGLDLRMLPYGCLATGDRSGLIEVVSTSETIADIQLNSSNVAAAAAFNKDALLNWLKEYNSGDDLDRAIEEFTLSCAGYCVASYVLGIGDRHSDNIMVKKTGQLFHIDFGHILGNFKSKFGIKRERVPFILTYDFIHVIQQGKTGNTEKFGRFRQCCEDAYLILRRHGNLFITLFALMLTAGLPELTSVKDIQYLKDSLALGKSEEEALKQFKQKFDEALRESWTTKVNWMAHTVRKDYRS
Sequence of Phosphatidylinositol 4,5-bisphosphate 3-kinase catalytic subunit alpha isoform (P42336 whole entry, canonical isoform): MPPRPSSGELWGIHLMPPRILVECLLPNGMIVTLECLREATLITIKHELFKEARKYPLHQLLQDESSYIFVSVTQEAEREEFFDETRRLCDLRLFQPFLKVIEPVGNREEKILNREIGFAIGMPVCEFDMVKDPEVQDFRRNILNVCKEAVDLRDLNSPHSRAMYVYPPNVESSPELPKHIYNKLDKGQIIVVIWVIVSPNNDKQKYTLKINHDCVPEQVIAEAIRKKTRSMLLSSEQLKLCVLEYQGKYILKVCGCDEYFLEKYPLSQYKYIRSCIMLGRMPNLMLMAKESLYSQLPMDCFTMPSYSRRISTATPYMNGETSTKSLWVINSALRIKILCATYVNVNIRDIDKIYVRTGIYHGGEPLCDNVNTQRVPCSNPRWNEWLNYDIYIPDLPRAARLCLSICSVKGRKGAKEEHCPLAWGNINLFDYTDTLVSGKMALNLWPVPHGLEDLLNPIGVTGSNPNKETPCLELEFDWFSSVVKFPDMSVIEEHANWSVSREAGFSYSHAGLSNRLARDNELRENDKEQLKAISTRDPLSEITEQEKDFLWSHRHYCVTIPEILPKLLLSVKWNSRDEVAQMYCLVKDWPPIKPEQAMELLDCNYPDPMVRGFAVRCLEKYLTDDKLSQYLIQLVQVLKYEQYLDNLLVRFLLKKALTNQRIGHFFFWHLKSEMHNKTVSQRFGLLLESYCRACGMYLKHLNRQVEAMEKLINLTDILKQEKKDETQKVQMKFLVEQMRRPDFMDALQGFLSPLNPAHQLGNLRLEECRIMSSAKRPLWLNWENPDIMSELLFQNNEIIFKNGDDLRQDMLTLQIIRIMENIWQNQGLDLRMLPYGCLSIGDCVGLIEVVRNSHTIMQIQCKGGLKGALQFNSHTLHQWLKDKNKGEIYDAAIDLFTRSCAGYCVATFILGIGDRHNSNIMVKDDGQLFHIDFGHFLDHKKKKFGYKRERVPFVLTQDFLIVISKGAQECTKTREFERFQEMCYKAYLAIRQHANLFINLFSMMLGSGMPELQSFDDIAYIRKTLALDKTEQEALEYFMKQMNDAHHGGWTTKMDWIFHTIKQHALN

SMILES	IC50 [1]	IC50 (SU-DHL-6)	also measured
N#Cc1c(N)ncnc1N1CCC[C@H]1c1nc2cccc(C#Cc3ccccn3)c2c(=O)n1-c1ccccc1	> 300 nM	1900 nM	
N#Cc1c(N)ncnc1N1CCC[C@H]1c1nc2cccc(C#CCN3C[C@@H]4C[C@H]3CN4)c2c(=O)n1-c1ccccc1	135 nM	1260 nM	
Cc1nc(N)nc(N2CCC[C@H]2c2nc3cccc(C#CCCCC(=O)N4CCOCC4)c3c(=O)n2-c2ccccc2)c1C#N	11.8 nM	178 nM	
Cc1nc(N)nc(N2CC[C@H]2c2nc3cccc(C#CCCCC(=O)N4CCOCC4)c3c(=O)n2-c2ccccc2)c1C#N	16.8 nM	640 nM	
CCOC(=O)c1cnc(C#Cc2cccc3nc([C@@H]4CCCN4c4ncnc(N)c4C#N)n(-c4ccccc4)c(=O)c23)s1	> 300 nM	> 10000 nM	
N#Cc1c(N)ncnc1N1CCC[C@H]1c1nc2cccc(C#Cc3cccnc3)c2c(=O)n1-c1ccccc1	> 300 nM	1730 nM	
Nc1nc(N)nc(N2CCC[C@H]2c2nc3cccc(C#CCCCC(=O)N4CCOCC4)c3c(=O)n2-c2ccccc2)n1	> 300 nM	> 10000 nM	
CC[C@H](Nc1nc(N)nc(N)c1C#N)c1nc2cccc(C#CCCCC(=O)N3CCCC3)c2c(=O)n1-c1ccccc1	6.73 nM	37.2 nM	IC50 [2]: 125 nM; IC50 [3]: 624 nM; IC50 [4]: 530 nM; IC50 (KARPAS-422): 2100 nM; IC50 [5]: 6800 nM; IC50 (HT): 7900 nM; IC50 (Pfeiffer): 2200 nM; IC50 (NAMALVA): 6200 nM; IC50 (SU-DHL-1): 4900 nM; IC50 (SUD4): 1700 nM; IC50 (SU-DHL10): 1800 nM; IC50 (MOLT-4): 6700 nM; IC50 ([6]; read-out: IC50): > 40000 nM; inhibition at 40 µM (hERG (KCNH2)): 39.3%
N#Cc1c(N)ncnc1N1CCC[C@H]1c1nc2cccc(C#CCCCC(=O)N3CCOCC3)c2c(=O)n1-c1ccccc1	13.8 nM	27.6 nM	IC50 [2]: 291 nM; IC50 [3]: 3110 nM; IC50 [4]: 1650 nM; IC50 (KARPAS-422): 11600 nM; IC50 [5]: > 10000 nM; IC50 (HT): > 10000 nM; IC50 (Pfeiffer): 7200 nM; IC50 (NAMALVA): 6000 nM; IC50 (SU-DHL-1): > 10000 nM; IC50 (SUD4): 3900 nM; IC50 (SU-DHL10): 2400 nM; IC50 (MOLT-4): > 10000 nM; IC50 ([6]; read-out: IC50): 31700 nM; inhibition at 40 µM (hERG (KCNH2)): 61.9%
N#Cc1c(N)ncnc1N1CC[C@H]1c1nc2cccc(C#CCCCC(=O)N3CCOCC3)c2c(=O)n1-c1ccccc1	620 nM	7320 nM	
N#Cc1c(N)ncnc1N1CC[C@H]1c1nc2cccc(C#CCCCC(=O)N3CCCC3)c2c(=O)n1-c1ccccc1	440 nM	7840 nM	
Cc1nc(N)nc(N2CCC[C@H]2c2nc3cccc(C#CCCCC(=O)N4CCCC4)c3c(=O)n2-c2ccccc2)c1C#N	7.1 nM	58.9 nM	IC50 [2]: 132 nM; IC50 [3]: 1480 nM; IC50 [4]: 2020 nM; IC50 (KARPAS-422): 4300 nM; IC50 [5]: > 10000 nM; IC50 (HT): > 10000 nM; IC50 (Pfeiffer): 4400 nM; IC50 (NAMALVA): 5900 nM; IC50 (SU-DHL-1): > 10000 nM; IC50 (SUD4): 4000 nM; IC50 (SU-DHL10): 4500 nM; IC50 (MOLT-4): 6700 nM; IC50 [6]: Nd(Insoluble); inhibition (INH) [7]: Nd(Insoluble)
Cc1nc(N)nc(N2CC[C@H]2c2nc3cccc(C#CCCCC(=O)N4CCCC4)c3c(=O)n2-c2ccccc2)c1C#N	19.6 nM	862 nM	
N#Cc1c(N)ncnc1N1CCC[C@H]1c1nc2cccc(C#CC(=O)N3CCOCC3)c2c(=O)n1-c1ccccc1	70 nM	1120 nM	
N#Cc1c(N)ncnc1N1CCC[C@H]1c1nc2cccc(C#Cc3cccs3)c2c(=O)n1-c1ccccc1	41.5 nM	1680 nM	
N#Cc1c(N)ncnc1N1CCC[C@H]1c1nc2cccc(C#CCCCC(=O)N3CCCC3)c2c(=O)n1-c1ccccc1	11.5 nM	99 nM	
CC[C@H](Nc1ncnc2[nH]cnc12)c1nc2cccc(C#CCCCC(=O)N3CCOCC3)c2c(=O)n1-c1ccccc1	110 nM	1180 nM	
CC(C)(C)N1CCN(C(=O)C#Cc2cccc3nc([C@@H]4CCCN4c4ncnc(N)c4C#N)n(-c4ccccc4)c(=O)c23)CC1	97.7 nM	216 nM	
CC[C@H](Nc1ncnc2[nH]cnc12)c1nc2cccc(F)c2c(=O)n1-c1ccccc1 [IDELALISIB]		118 nM	IC50 (KARPAS-422): 8100 nM; IC50 [5]: > 10000 nM; IC50 (HT): > 10000 nM; IC50 (Pfeiffer): 6800 nM; IC50 (NAMALVA): > 10000 nM; IC50 (SU-DHL-1): > 10000 nM; IC50 (SU-DHL10): > 10000 nM; IC50 (MOLT-4): > 10000 nM
CC[C@H](Nc1nc(N)nc(N)c1C#N)c1nc2cccc(C#CCCCO)c2c(=O)n1-c1ccccc1	12.2 nM	26.8 nM	
CC[C@H](Nc1ncnc(N)c1C#N)c1nc2cccc(C#CCCCC(=O)N3CCCC3)c2c(=O)n1-c1ccccc1	112 nM	1900 nM	
CC[C@H](Nc1ncnc(N)c1C#N)c1nc2cccc(C#CCCCC(=O)N3CCOCC3)c2c(=O)n1-c1ccccc1	96.8 nM	1430 nM	
N#Cc1c(N)ncnc1N1CCC[C@H]1c1nc2cccc(C#Cc3cccc(F)c3)c2c(=O)n1-c1ccccc1	> 300 nM	3860 nM	
CC(C)N1CCN(Cc2cnc(C#Cc3cccc4nc([C@@H]5CCCN5c5ncnc(N)c5C#N)n(-c5ccccc5)c(=O)c34)s2)CC1	> 300 nM	1150 nM	

Now from value to compound, other results behind:

IC50 [1]	IC50 (SU-DHL-6)	SMILES	also measured
188 nM	2000 nM	CC(COC(F)F)N1CCN(CC#Cc2cccc3nc([C@@H]4CCCN4c4ncnc(N)c4C#N)n(-c4ccccc4)c(=O)c23)CC1 (some centres not stated)	
78.1 nM	526 nM	N#Cc1c(N)ncnc1N1CCC[C@H]1c1nc2cccc(C#CCN3CCC(C4CC(F)C4)CC3)c2c(=O)n1-c1ccccc1 (some centres not stated)	
67.1 nM	339 nM	CC(C)(CO)N1CCN(CC#Cc2cccc3nc([C@@H]4CCCN4c4ncnc(N)c4C#N)n(-c4ccccc4)c(=O)c23)CC1	
60.2 nM	372 nM	C=CC(O)C(C)(C)N1CCN(CC#Cc2cccc3nc([C@@H]4CCCN4c4ncnc(N)c4C#N)n(-c4ccccc4)c(=O)c23)CC1 (some centres not stated)	
170 nM	2820 nM	CC(C)(F)CN1CCN(CC#Cc2cccc3nc([C@@H]4CCCN4c4ncnc(N)c4C#N)n(-c4ccccc4)c(=O)c23)CC1	
141 nM	724 nM	N#Cc1c(N)ncnc1N1CCC[C@H]1c1nc2cccc(C#CCN3CCC(C4CC(F)(F)C4)CC3)c2c(=O)n1-c1ccccc1	
43 nM	282 nM	CC(C)(C)N1CCN(CC#Cc2cccc3nc([C@@H]4CCCN4c4ncnc(N)c4C#N)n(-c4ccccc4)c(=O)c23)CC1	
107 nM	1160 nM	N#Cc1c(N)ncnc1N1CCC[C@H]1c1nc2cccc(C#CCN3CCOCC3)c2c(=O)n1-c1ccccc1	
80.2 nM	1410 nM	CC(F)CN1CCN(CC#Cc2cccc3nc([C@@H]4CCCN4c4ncnc(N)c4C#N)n(-c4ccccc4)c(=O)c23)CC1 (some centres not stated)	
107 nM	705 nM	N#Cc1c(N)ncnc1N1CCC[C@H]1c1nc2cccc(C#CCN3CCN(CC4CC4)CC3)c2c(=O)n1-c1ccccc1	
